Holding throughout (experiment): Antitumor bioactivity evaluation, breast cancer cells (ATPlite)
Background: Cellular ATP, detected with luciferase, serves as a proxy for viable cell number.

One assay concerns BT474. The assay is classed as cell-based. Particulars: Homo sapiens, BT-474; test sample 5 μM, 72 hours; read-out: Inhibitory Rate % BT474. Here is the method:
(§1) Antitumor bioactivity evaluation of the compounds of Examples according to the method described below
(§2) Cells plating: a 100 mm culture dish with overgrown adherent cells was digested with 1 ml 0.25% trypsin (GIBCO) at 37° C. for 5 min, and the reaction was terminated with 2 ml culture medium (containing 10% FBS, GIBCO). The cells were scattered and collected, after counting, diluted to 1×10^5 cells/ml, and seeded into a 96-well plate at 50 μl/well, 5000 cells/well, excluding the peripheral circle of wells in which no cell was added, but PBS was added, 60 wells in total, and then incubated at 37° C. for 24 hours for adhering.
(§3) Addition of the compound and lapatinib: the test sample was diluted to a final concentration of 5 μM, and the culture medium with the corresponding compound solvent concentration was filled in the control well, the compound solvent concentration was kept consistent in each well, 5 parellel wells were set for each concentration, 25 μl each well, 25 μl culture medium (in combined group, 25 μl lapatinib was added till a final concentration of 1 μM) supplemented, followed by incubation at 37° C. for 72 hours.
(§4) Test after incubation at 37° C. for 72 hours: 50 μL of ATPlite kit substrate solution was added in each well, and vibrated for 3 min, followed by placing aside in darkness for 10 min, and then supernatant 100 μl/well was taken and placed on aluminescence test plate; the luminescence test plate that has been fully incubated was placed in a luminescence test instrument, to read luminescence value.
(§5) 1. Cell survival rate (%)=Experimental group RLU/control group RLU×100%. The experimental data were subjected to data analysis and processing by utilizing GraphPad software.

In the next assay the test system is MDA-MB-361. In kind it is cell-based. As to conditions: Homo sapiens, test sample 5 μM, 72 hours, read-out: Inhibitory Rate % MDA-MB-361. Here is the method: as §1, §2, §3, §4, §5
The next assay concerns MDA-MB-453. In kind it is cell-based. As to conditions: Homo sapiens, test sample 5 μM, 72 hours, read-out: Inhibitory Rate % MDA-MB-453. Here is the method: as §1, §2, §3, §4, §5
The test system of a further assay is SK-BR3. The assay is classed as cell-based. Particulars: Homo sapiens, SK-BR-3; test sample 5 μM, 72 hours; read-out: Inhibitory Rate % SK-BR3. Here is the method: as §1, §2, §3, §4, §5
For a further assay, the system named is SK/Lap^R1.0. In kind it is cell-based. Particulars: Homo sapiens; test sample 5 μM, 72 hours; read-out: Inhibitory Rate % SKLap^R1.0. Here is the method: as §1, §2, §3, §4, §5
The next assay relates to BT/Lap^R1.0. In kind it is cell-based, human. Particulars: Homo sapiens; test sample 5 μM, 72 hours; read-out: Inhibitory Rate % BT/Lap^R1.0. On the procedure:
as §1, §2, §3, §4, §5

As to `CSc1ncc(CN2CCC(N(C)Cc3ccc(Cl)c(Cl)c3)CC2)s1` [Example 30, N-methyl-N-(3,4-dichlorobenzyl)-N-{1-[(2-methylthiothiazol-5-yl)methyl]piperidin-4-yl}amine], the inhibition at 5 µM in the assay with BT474 came out at 62.6%; in the assay on MDA-MB-361, 42.1%; with MDA-MB-453, 69.9%; with SK-BR3 it was 42.4%; with SK/Lap^R1.0, 10.1%; with BT/Lap^R1.0, 67.1%.

In the case of `CN(Cc1ccc(Cl)c(Cl)c1)C1CCN(Cc2cnc(Cl)s2)CC1` [Example 17, N-methyl-N-(3,4-dichlorobenzyl)-N-{1-[(2-chlorothiazol-5-yl)methyl]piperidin-4-yl}amine], the inhibition at 5 µM came out at 45.4% with BT474; 42.9% with MDA-MB-361; 63.8% in the assay on MDA-MB-453; 34.3% in the assay with SK-BR3; 5.3% with SK/Lap^R1.0; 53.4% in the assay on BT/Lap^R1.0.

Turning to `CCOc1ncc(CN2CCC(N(C)Cc3ccc(F)cc3)CC2)s1` [Example 7, N-methyl-N-(4-fluorobenzyl)-N-{[1-(2-ethoxythiazol-5-yl)methyl]piperidin-4-yl}amine], the inhibition at 5 µM in the assay with BT474 was found to be 36.4%; in the assay with MDA-MB-361, 24.2%; in the assay with MDA-MB-453, 52.9%; with SK-BR3, 26%; with SK/Lap^R1.0 it was 25.1%; in the assay on BT/Lap^R1.0 it was 20.7%.

With `COc1nccc(N2CCC(N(C)Cc3cccc(F)c3)CC2)n1` [Example 56, N-methyl-N-(3-fluorobenzyl)-N-[1-(2-methoxypyrimidin-4-yl)piperidin-4-yl]amine], the inhibition at 5 µM in the assay with BT474 stood at 9.9%; with MDA-MB-361, 8.5%; with MDA-MB-453, 27.9%; with SK-BR3, 9.2%; with SK/Lap^R1.0 it was 3.9%; in the assay with BT/Lap^R1.0 it was 10.5%.

As to `COc1cc(N2CCC(N(C)Cc3c(F)cccc3Cl)CC2)ncn1` [Example 64, N-methyl-N-(2-fluoro-6-chlorobenzyl)-N-[1-(6-methoxypyrimidin-4-yl)piperidin-4-yl] amine], the inhibition at 5 µM came out at 45.9% in the assay with BT474; 39.6% in the assay with MDA-MB-361; 59.4% in the assay with MDA-MB-453; 15.5% with SK-BR3; 16.6% in the assay on SK/Lap^R1.0; 48.5% with BT/Lap^R1.0.

For the compound `CCOc1ncc(CN2CCC(N(C)Cc3ccc(Cl)cc3Cl)CC2)s1` [Example 8, N-methyl-N-(2,4-dichlorobenzyl)-N-{[1-(2-ethoxythiazol-5-yl)methyl]piperidin-4-yl}amine], the inhibition at 5 µM in the assay with BT474 is 70.3%; with MDA-MB-361, 49.2%; with MDA-MB-453, 71.3%; in the assay on SK-BR3, 41.6%; in the assay with SK/Lap^R1.0 it was 12%; in the assay with BT/Lap^R1.0, 65.9%.

For the compound `CSc1ncc(CN2CCC(N(C)Cc3ccc(C)cc3)CC2)s1` [Example 26, N-methyl-N-(4-methylbenzyl)-N-{[1-(2-methylthiothiazol-5-yl)methyl]piperidin-4-yl}amine], the inhibition at 5 µM in the assay on BT474 came to 68.3%; in the assay with MDA-MB-361, 38.3%; in the assay on MDA-MB-453, 67.1%; in the assay with SK-BR3, 49.6%; in the assay with SK/Lap^R1.0, 12.1%; in the assay with BT/Lap^R1.0 it was 66.7%.

With `COc1nccc(N2CCC(N(C)Cc3ccccc3C#N)CC2)n1` [Example 50, N-methyl-N-(2-cyanobenzyl)-N-[1-(2-methoxypyrimidin-4-yl)piperidin-4-yl]amine], the inhibition at 5 µM with BT474 stood at 27.5%; in the assay on MDA-MB-361, 22%; with MDA-MB-453, 50.6%; with SK-BR3, 24.7%; with SK/Lap^R1.0, 11.7%; with BT/Lap^R1.0, 22.7%.

As for `CSc1ncc(CN2CCC(N(C)Cc3cc(Cl)ccc3Cl)CC2)s1` [Example 34, N-methyl-N-(2,5-dichlorobenzyl)-N-{1-[(2-methylthiothiazol-5-yl)methyl]piperidin-4-yl}amine], the inhibition at 5 µM with BT474 was 42.3%; in the assay with MDA-MB-361 it was 25.4%; with MDA-MB-453, 59.4%; in the assay with SK-BR3, 23.3%; with SK/Lap^R1.0, 11.4%; in the assay with BT/Lap^R1.0 it was 34.4%.

On to `CSc1ncc(CN2CCC(N(C)Cc3ccccc3C)CC2)s1` [Example 25, N-methyl-N-(2-methylbenzyl)-N-{[1-(2-methylthiothiazol-5-yl)methyl]piperidin-4-yl}amine], for which the inhibition at 5 µM turned out to be 15.5% in the assay on BT474; 31.7% with MDA-MB-361; 35.1% with MDA-MB-453; 21.9% with SK-BR3; 6.9% with SK/Lap^R1.0; 1.4% in the assay with BT/Lap^R1.0.

Consider `CSc1ncc(CN2CCC(N(C)Cc3ccc(F)cc3)CC2)s1` [Example 29, N-methyl-N-(4-fluorobenzyl)-N-{1-[(2-methylthiothiazol-5-yl)methyl]piperidin-4-yl}amine], for which the inhibition at 5 µM stood at 54.4% with BT474; 32.8% in the assay with MDA-MB-361; 67.4% in the assay on MDA-MB-453; 40.9% with SK-BR3; 11.7% in the assay on SK/Lap^R1.0; 50.5% in the assay on BT/Lap^R1.0.

On to `CSc1nccc(N2CCC(N(C)Cc3ccc(Cl)c(Cl)c3)CC2)n1` [Example 38, N-methyl-N-(3,4-dichlorobenzyl)-N-[1-(2-methylthiopyrimidin-4-yl)piperidin-4-yl]amine], for which the inhibition at 5 µM amounted to 39.5% in the assay on BT474; 29.5% in the assay with MDA-MB-361; 60% in the assay with MDA-MB-453; 30.1% in the assay with SK-BR3; 12.9% in the assay on SK/Lap^R1.0; 29.9% in the assay with BT/Lap^R1.0.

Regarding `CN(Cc1cccc(F)c1)C1CCN(Cc2cnc(Cl)s2)CC1` [Example 23, N-methyl-N-(3-fluorobenzyl)-N-{[1-(2-chlorothiazol-5-yl)methyl]piperidin-4-yl}amine], the inhibition at 5 µM in the assay on BT474 worked out at 2.4%; in the assay on MDA-MB-361, 3.2%; with MDA-MB-453, 4.4%; in the assay with SK-BR3, 4.2%; with SK/Lap^R1.0 it was 1.3%; in the assay with BT/Lap^R1.0, 5.7%.

As to `Clc1cccc(CNC2CCN(Cc3cnc(Cl)s3)CC2)c1` [Example 13, N-(3-chlorobenzyl)-N-{1-[(2-chlorothiazol-5-yl)methyl]piperidin-4-yl}amine], the inhibition at 5 µM is 3.8% in the assay on BT474; 3.2% in the assay with MDA-MB-361; 2.4% in the assay with MDA-MB-453; 17.9% with SK-BR3; 4.1% in the assay on SK/Lap^R1.0; 7.2% with BT/Lap^R1.0.

For the compound `CN(Cc1c(F)cccc1Cl)C1CCN(Cc2cnc(Cl)s2)CC1` [Example 19, N-methyl-N-(2-fluoro-6-chlorobenzyl)-N-{[1-(2-chlorothiazol-5-yl)methyl]piperidin-4-yl}amine], the inhibition at 5 µM with BT474 is 10.6%; in the assay with MDA-MB-361, 10.4%; with MDA-MB-453 it was 22.4%; with SK-BR3, 9.8%; in the assay with SK/Lap^R1.0, 1.5%; in the assay with BT/Lap^R1.0, 3.2%.

For the compound `CCOc1ncc(CN2CCC(N(C)Cc3ccc(C#N)cc3)CC2)s1` [Example 4, N-methyl-N-(4-cyanobenzyl)-N-{1-[(2-ethoxythiazol-5-yl)methyl]piperidin-4-yl}amine], the inhibition at 5 µM with BT474 was determined as 61.7%; with MDA-MB-361, 51.3%; with MDA-MB-453, 70.5%; in the assay with SK-BR3 it was 45.5%; in the assay with SK/Lap^R1.0 it was 6.7%; in the assay on BT/Lap^R1.0, 66.1%.

For `COc1cc(N2CCC(N(C)Cc3cccc(Cl)c3)CC2)ncn1` [Example 63, N-methyl-N-(3-chlorobenzyl)-N-[1-(6-methoxypyrimidin-4-yl)piperidin-4-yl]amine], the inhibition at 5 µM was 11.9% with BT474; 25.6% in the assay with MDA-MB-361; 23.8% in the assay with MDA-MB-453; 12.6% in the assay with SK-BR3; 24.8% in the assay on SK/Lap^R1.0; 9.4% with BT/Lap^R1.0.

Regarding `Cc1ccccc1CN(C)C1CCN(Cc2cnc(Cl)s2)CC1` [Example 21, N-methyl-N-(2-methylbenzyl)-N-{[1-(2-chlorothiazol-5-yl)methyl]piperidin-4-yl}amine], the inhibition at 5 µM stood at 1.5% in the assay on BT474; 4.4% in the assay with MDA-MB-361; 3.5% with MDA-MB-453; 9.7% in the assay on SK-BR3; 5.1% in the assay with SK/Lap^R1.0; 4% in the assay with BT/Lap^R1.0.

Values taken from US10023565B2, “N,N′ substituted piperidinamine compounds, and preparation method and usage thereof” (Institute of Pharmacology and Toxicology Academy of …, priority 2013, dated 2018).
